Measurements as given in patent US11111242B2, “Pyrrolo[2,3-d]pyrimidinyl, pyrrolo[2,3-b]pyrazinyl and pyrrolo[2,3-d]pyridinyl acrylamides” (Pfizer Inc., priority 2013, dated 2021).
Read-outs that look alike come from different tables or passages of the source.

Legend:
[1] = system: IL-15 induced STAT5 phosphorylation in Human Whole Blood (total lymphocytes); assay: HWB IL-15 Induced STAT5 Phosphorylation Assay; assay type: cell-based; conditions: Lymphocyte, IL-15 stimulated, read-out: HWB-IL15-pSTAT5 IC50
Procedure: HWB IL-15 Induced STAT5 Phosphorylation Assay
After mixing and incubating for 45 minutes at 37° C., 5 μl D-PBS (unstimulated control) or 20× stocks of 5 μl human IL-15 (final concentration is 50 ng/ml) were added, and mixed three times. After incubating 15 minutes at 37° C., 1× Lyse/Fix Buffer (BD Phosflow 5× Lyse/Fix Buffer) was added to all wells at 1000 μl/well, then incubated for 20 minutes at 37° C. and spun 5 mins at 1200 rpm. […] Following incubating at 4° C. over night, all the samples were transferred to 96-well polypropylene U-bottom plate, and checked by flow cytometry gated on total lymphocytes.

[2] = system: IL-15 induced P-STAT5 in human PBMC (total lymphocytes); assay: PBMC IL-15 Induced P-STAT5; assay type: cell-based; conditions: IL-15 stimulated, read-out: PBMC IL15-pSTAT5 IC50
Procedure: PBMC IL-15 Induced P-STAT5
Frozen human PBMC (200-250 million cells/vial) was thawed at 37° C. The cells were transferred to 10 mL warm medium in a 50-mL conical tube, and centrifuged at 1,200 RPM at room temperature for 5 min. The supernatant was aspirated. […] After adding 47 ml D-PBS (37° C.) to PBMC/FBS suspension, centrifuging at 1,200 RPM at room temperature for 5 min, and aspirating the supernatant, the cells were resuspended in 20 mL warm RPMI medium. Ninety μL of cell suspension were pipetted per well in a 96-well, deep-well, V-bottom plate, and the plate was incubated at 37° C. for 30 min. […] After adding 0.8 mL staining buffer per well, the plates were centrifuged at 1,200 RPM (Beckman GS-6R or Sorvall Legend) at room temperature for 5 min, and again the supernatant was aspirated using a 8-channel or 12-channel manifold. The plate was vortexed, and 0.35 mL 90% methanol/10% H2O (−20° C.) was added per well, and the plate incubated on ice for 20 min. After again adding 0.8 mL staining buffer per well, the plates were centrifuged at 1,200 RPM (Beckman GS-6R or Sorvall Legend) at room temperature for 5 min, and again the supernatant was aspirated using a 8-channel or 12-channel manifold, and then 0.8 mL Staining buffer was added per well. After once again adding 0.8 mL staining buffer per well, the plates were centrifuged at 1,200 RPM (Beckman GS-6R or Sorvall Legend) at room temperature for 5 min, and again the supernatant was aspirated using a 8-channel or 12-channel manifold. […] Samples of 250 μL/well were transferred to a 96-well U-bottom plate, and the FACS analysis was performed gating on total lymphocytes. Samples were analyzed using a BD Calibur™ or BD FACSCanto™ flow cytometer equipped with the BD High Throughput Sampler.

SMILES | IC50 [1] [nM] | IC50 [2] [nM] | IC50 ([2]; Homo sapiens, PBMC) [nM]
C=CC(=O)N1C[C@@H](C)C[C@@H](Nc2ncnc3[nH]ccc23)C1 (racemic) [Example 22, rac-cis-1-((3R,5S)-3-((7H-Pyrrolo[2,3-d]pyrimidin-4-yl)amino)-5-methylpiperidin-1-yl)prop-2-en-1-one] | 712 | 216 | –
C=CC(=O)N1CC[C@H](C)[C@@H](Nc2ncnc3[nH]ccc23)C1 (racemic) [Example 50, 1-[(3R,4S)-4-methyl-3-(7H-pyrrolo[2,3-d]pyrimidin-4-ylamino)piperidin-1-yl]prop-2-en-1-one] | 926 | – | 202
C=CC(=O)N1C[C@H](Nc2ncnc3[nH]ccc23)CC[C@@H]1C (racemic) [Example 129, rac-1-[(2S,5R)-2-Methyl-5-(7H-pyrrolo[2,3-d]pyrimidin-4-ylamino)piperidin-1-yl]prop-2-en-1-one] | 797 | 114 | –
C=CC(=O)N1CC[C@@H]2CCN(c3ncnc4[nH]ccc34)[C@@H]2C1 (single isomer, unassigned) [Example 8] | 399 | – | –
C=CC(=O)N1C[C@H](Nc2ncnc3[nH]ccc23)CC[C@@H]1CC (single isomer, unassigned) [Example 9] | 578 | – | 35.5
C=CC(=O)N1C[C@@H](C)C[C@@H](Nc2ncnc3[nH]ccc23)C1 (single isomer, unassigned) [Example 14] | 538 | 114 | –
C=CC(=O)N1C[C@H](Nc2ncnc3[nH]ccc23)CCC1(C)C (single isomer, unassigned) [Example 61] | 1870 | – | 1030
C=CC(=O)N1CCC[C@@H](Nc2ncnc3[nH]cc(Cl)c23)C1 [Example 3, (R)-1-(3-((5-chloro-7H-pyrrolo[2,3-d]pyrimidin-4-yl)amino)piperidin-1-yl)prop-2-en-1-one] | 153 | – | 35.2
C=CC(=O)N1CC[C@H](F)[C@@H](Nc2ncnc3[nH]ccc23)C1 [Example 4, 1-((3S,4S)-3-((7H-pyrrolo[2,3-d]pyrimidin-4-yl)amino)-4-fluoropiperidin-1-yl)prop-2-en-1-one] | 115 | – | 19.7
C=CC(=O)N1C[C@H](C#N)C[C@@H](Nc2ncnc3[nH]ccc23)C1 [Example 6, (3R,5R)-5-((7H-pyrrolo[2,3-d]pyrimidin-4-yl)amino)-1-acryloylpiperidine-3-carbonitrile] | 870 | 45.8 | –
C=CC(=O)N1C[C@H](F)C[C@@H](Nc2ncnc3[nH]ccc23)C1 [Example 10, 1-((3R,5R)-3-((7H-pyrrolo[2,3-d]pyrimidin-4-yl)amino)-5-fluoropiperidin-1-yl)prop-2-en-1-one] | 461 | – | 133
C=CC(=O)N1CC[C@H](C)[C@@H](Nc2ncnc3[nH]ccc23)C1 [Example 11, 1-((3R,4S)-3-((7H-pyrrolo[2,3-d]pyrimidin-4-yl)amino)-4-methylpiperidin-1-yl)prop-2-en-1-one] | 363 | – | 97.9
C=CC(=O)N1CCC[C@@H](Nc2ncnc3[nH]ccc23)C1 [Example 12, (R)-1-(3-((7H-Pyrrolo[2,3-d]pyrimidin-4-yl)amino)piperidin-1-yl)prop-2-en-1-one] | 392 | – | 107
C=CC(=O)N1CC(Nc2ncnc3[nH]ccc23)CCC1CO (stereo not drawn) [Example 52, 1-[2-(Hydroxymethyl)-5-(7H-pyrrolo[2,3-d]pyrimidin-4-ylamino)piperidin-1-yl]prop-2-en-1-one] | 235 | – | –
C=CC(=O)N1CCC(Nc2cnc3[nH]cc(C(=O)NCC4(O)CCCC[C@@H]4F)c3n2)CC1 (stereo partly drawn) [Example 254, 2-[(1-acryloylpiperidin-4-yl)amino]-N-{[(2S)-2-fluoro-1-hydroxycyclohexyl]methyl}-5H-pyrrolo[2,3-b]pyrazine-7-carboxamide] | – | 836 | –
C=CC(=O)N1CCC(Nc2cnc3[nH]cc(C(=O)NCCCCCCCCC#N)c3n2)CC1 [Example 260, 2-[(1-acryloylpiperidin-4-yl)amino]-N-(8-cyanooctyl)-5H-pyrrolo[2,3-b]pyrazine-7-carboxamide] | – | 575 | –
C=CC(=O)N1CCC(Nc2cnc3[nH]cc(C(=O)N[C@H]4CCC[C@H](CC#N)C4)c3n2)CC1 [Example 262, 2-[(1-acryloylpiperidin-4-yl)amino]-N-[(1S,3S)-3-(cyanomethyl)cyclohexyl]-5H-pyrrolo[2,3-b]pyrazine-7-carboxamide] | – | 1330 | –
C=CC(=O)N1CCC(Nc2cnc3[nH]cc(C(=O)N4CCC4)c3n2)CC1 [Example 284, 1-(4-{[7-(azetidin-1-ylcarbonyl)-5H-pyrrolo[2,3-b]pyrazin-2-yl]amino}piperidin-1-yl)prop-2-en-1-one] | – | 2790 | –
C=CC(=O)N1CCC(Nc2cnc3[nH]cc(C(=O)N4CCCC4)c3n2)CC1 [Example 287, 1-(4-{[7-(pyrrolidin-1-ylcarbonyl)-5H-pyrrolo[2,3-b]pyrazin-2-yl]amino}piperidin-1-yl)prop-2-en-1-one] | – | 7370 | –
C=CC(=O)N1CC[C@@H](Nc2cnc3[nH]cc(C(=O)NC(C)C)c3n2)[C@H](F)C1 [Example 291, 2-{[(3R,4R)-1-acryloyl-3-fluoropiperidin-4-yl]amino}-N-(propan-2-yl)-5H-pyrrolo[2,3-b]pyrazine-7-carboxamide] | – | 168 | –
C=CC(=O)N1CCN(c2cnc3[nH]cc(C(=O)NC(C)C)c3n2)C[C@H]1C(C)C [Example 294, 2-[(3R)-4-acryloyl-3-(propan-2-yl)piperazin-1-yl]-N-(propan-2-yl)-5H-pyrrolo[2,3-b]pyrazine-7-carboxamide] | – | 1000 | –
C=CC(=O)N1CCN(c2cnc3[nH]cc(C(=O)NC(C)C)c3n2)[C@@H](C)C1 [Example 297, 2-[(2S)-4-acryloyl-2-methylpiperazin-1-yl]-N-(propan-2-yl)-5H-pyrrolo[2,3-b]pyrazine-7-carboxamide] | – | 752 | –
C=CC(=O)N1[C@H](C)CN(c2cnc3[nH]cc(C(=O)NC(C)C)c3n2)C[C@@H]1C [Example 306, 2-[(3R,5S)-4-acryloyl-3,5-dimethylpiperazin-1-yl]-N-(propan-2-yl)-5H-pyrrolo[2,3-b]pyrazine-7-carboxamide] | – | 1090 | –
C=CC(=O)N1CCN(c2cnc3[nH]cc(C(=O)NC(C)C)c3n2)[C@H](C)C1 [Example 307, 2-[(2R)-4-acryloyl-2-methylpiperazin-1-yl]-N-(propan-2-yl)-5H-pyrrolo[2,3-b]pyrazine-7-carboxamide] | – | 457 | –
C=CC(=O)N1CC2CCC1CN2c1cnc2[nH]cc(C(=O)NC(C)C)c2n1 (stereo not drawn) [Example 308, 2-(5-acryloyl-2,5-diazabicyclo[2.2.2]oct-2-yl)-N-(propan-2-yl)-5H-pyrrolo[2,3-b]pyrazine-7-carboxamide] | – | 2240 | –
C=CC(=O)N1CCN(c2cnc3[nH]cc(C(=O)NC(C)C)c3n2)C2(CC2)C1 [Example 313, 2-(7-acryloyl-4,7-diazaspiro[2.5]oct-4-yl)-N-(propan-2-yl)-5H-pyrrolo[2,3-b]pyrazine-7-carboxamide] | – | 706 | –
C=CC(=O)N1CCN(c2cnc3[nH]cc(C(=O)NC(C)C)c3n2)[C@H](CC)C1 [Example 321, 2-[(2R)-4-acryloyl-2-ethylpiperazin-1-yl]-N-(propan-2-yl)-5H-pyrrolo[2,3-b]pyrazine-7-carboxamide] | – | 415 | –
C=CC(=O)N1CCN(c2cnc3[nH]cc(C(=O)NC(C)C)c3n2)[C@@H](CC)C1 [Example 325, 2-[(2S)-4-acryloyl-2-ethylpiperazin-1-yl]-N-(propan-2-yl)-5H-pyrrolo[2,3-b]pyrazine-7-carboxamide] | – | 1560 | –
C=CC(=O)N1C[C@@H](C)N(c2cnc3[nH]cc(C(=O)NC(C)C)c3n2)[C@@H](C)C1 [Example 328, 2-[(2R,6S)-4-acryloyl-2,6-dimethylpiperazin-1-yl]-N-(propan-2-yl)-5H-pyrrolo[2,3-b]pyrazine-7-carboxamide] | – | 891 | –
C=CC(=O)N1CCC(Oc2cnc3[nH]cc(C(=O)NC(C)(C)C)c3n2)CC1 [Example 338, 2-((1-Acryloylpiperidin-4-yl)oxy)-N-(tert-butyl)-5H-pyrrolo[2,3-b]pyrazine-7-carboxamide] | – | 480 | –
